Reference: patent publication US4404378A, “2-Substituted or unsubstituted aminocarbonyloxyalkyl-1,4-dihydropyridines” (Banyu Pharmaceutical Co., Ltd., priority 1981, dated 1983)
In brackets after ≈: the same amount, converted by molar mass. Where two headings read alike, the source gives them in different places.

Key:
[1] = tested on: isolated hearts of rabbits; assay: Coronary vasodilation in isolated rabbit hearts (Langendorff method); conditions: Oryctolagus cuniculus, isolated rabbit heart, dosage required to increase coronary outflow by 50%, read-out: Coronary vasodilation ICD50
Method: (a) Coronary vasodilation According to Langendorff method (O. Langendorff; Pflugers arch. ges. phisiol., 61, 291-332 (1895)), the coronary vasodilation effects were tested using isolated hearts of rabbits.

[2] = Acute toxicity, i.v., up-and-down method; conditions: mouse, in vivo, iv
[3] = tested on: Beagle dogs; assay: Coronary effects on dogs; assay type: in vivo, dog
Method: (c) Coronary effects on dogs Beagle dogs (13 to 16 kg. .male.) were subjected to thoracotomy under anesthesia with sodium pentobarbital, and a probe was attached to the heart left coronary anterior descending artery of each animal, whereupon the coronary blood flow (CF) was measured by an electromagnetic flowmeter. On the other hand, a probe was attached to the exposed right femoral artery, and the femoral artery blood flow (FAF) was measured by an electromagnetic flowmeter. A canule was inserted to the left femoral artery, and the systemic blood pressure (BP) was bloody measured by a transducer. The heart rate (HR) was measured by an electrocardiogram. The sample solution was intravenously injected to the right femoral vein. The coronary blood flow (CF), the femoral artery blood flow (FAF) and the heart rate (HR) were represented by a % increase upon the injection of each sample as compared with the respective control value upon the injection of a saline. […]

| Compound | EC50 ([1]; Table 1(a)) [µg/mL] | LD50 [2] [mg/kg] | EC50 ([1]; Table 1(b)) [µg/mL] | other results |
| --- | --- | --- | --- | --- |
| CCOC(=O)C1=C(C)NC(COC(N)=O)=C(C(=O)OCC)C1c1cccc([N+](=O)[O-])c1 (stereo not drawn) [(1)] | 0.24 (≈ 0.554 µM) | 207 | – | – |
| COC(=O)C1=C(C)NC(COC(N)=O)=C(C(=O)OC)C1c1cccc([N+](=O)[O-])c1 (stereo not drawn) [(3), 2-Aminocarbonyloxymethyl-6-methyl-4-(3-nitrophenyl)-3,5-dimethoxycarbonyl-1,4-dihydropyridine] | 0.36 (≈ 0.888 µM) | 167 | – | – |
| CCOC(=O)C1=C(C)NC(COC(N)=O)=C(C(=O)OCC)C1c1ccccc1[N+](=O)[O-] (stereo not drawn) [(5), 2-Aminocarbonyloxymethyl-6-methyl-4-(2-nitrophenyl)-3,5-diethoxycarbonyl-1,4-dihydropyridine] | 0.48 (≈ 1.11 µM) | 104 | – | – |
| CCOC(=O)C1=C(C)NC(COC(=O)NC)=C(C(=O)OCC)C1c1ccccc1[N+](=O)[O-] (stereo not drawn) [(6), 2-N--Methylaminocarbonyloxymethyl-6-methyl-4-(2-nitrophenyl)-3,5-diethoxycarbonyl-1,4-dihydropyridine] | 0.45 (≈ 1.01 µM) | 30 | – | – |
| CCOC(=O)C1=C(COC(N)=O)NC(C)=C(C(=O)OC(C)C)C1c1cccc([N+](=O)[O-])c1 (stereo not drawn) [(7), 2-Aminocarbonyloxymethyl-6-methyl-4-(3-nitrophenyl)-3-ethoxycarbonyl-5-isopropoxycarbonyl-1,4-dihydropyridine] | 0.24 (≈ 0.536 µM) | 76 | – | – |
| CCOC(=O)C1=C(COC(=O)NC)NC(C)=C(C(=O)OC(C)C)C1c1cccc([N+](=O)[O-])c1 (stereo not drawn) [(8), 2-N--Methylaminocarbonyloxymethyl-6-methyl-4-(3-nitrophenyl)-3-ethoxycarbonyl-5-isopropoxycarbonyl-1,4-dihydropyridine] | 0.23 (≈ 0.498 µM) | 37 | – | – |
| CCCOCCOC(=O)C1=C(C)NC(COC(N)=O)=C(C(=O)OCC)C1c1cccc([N+](=O)[O-])c1 (stereo not drawn) [(9), 2-Aminocarbonyloxymethyl-6-methyl-4-(3-nitrophenyl)-3-ethoxycarbonyl-5-(β-propoxyethoxy)carbonyl-1,4-dihydropyridine] | – | 136 | 0.34 (≈ 0.692 µM) | – |
| CCCOCCOC(=O)C1=C(C)NC(COC(N)=O)=C(C(=O)OCC)C1c1ccccc1[N+](=O)[O-] (stereo not drawn) [(10), 2-Aminocarbonyloxymethyl-6-methyl-4-(2-nitrophenyl)-3-ethoxycarbonyl-5-(β-propoxyethoxy)carbonyl-1,4-dihydropyridine] | – | 84 | 0.3 (≈ 0.61 µM) | – |
| CCCOCCOC(=O)C1=C(COC(N)=O)NC(C)=C(C(=O)OCC)C1c1cccc([N+](=O)[O-])c1 (stereo not drawn) [(11), 2-Aminocarbonyloxymethyl-6-methyl-4-(3-nitrophenyl)-5-ethoxycarbonyl-3-(β-propoxyethoxy)carbonyl-1,4-dihydropyridine] | – | 123 | 0.25 (≈ 0.509 µM) | – |
| CCCOCCOC(=O)C1=C(C)NC(COC(N)=O)=C(C(=O)OCCOCCC)C1c1cccc([N+](=O)[O-])c1 (stereo not drawn) [(12), 2-Aminocarbonyloxymethyl-6-methyl-4-(3-nitrophenyl)-3,5-bis[(β-propoxyethoxy)carbonyl]-1,4-dihydropyridine] | – | 123 | 0.15 (≈ 0.273 µM) | – |
| CCCOCCOC(=O)C1=C(C)NC(COC(=O)NC)=C(C(=O)OCCOCCC)C1c1cccc([N+](=O)[O-])c1 (stereo not drawn) [(13), 2-N--Methylaminocarbonyloxymethyl-6-methyl-4-(3-nitrophenyl)-3,5-bis[(β-propoxyethoxy)carbonyl]-1,4-dihydropyridine] | – | 104 | 0.04 (≈ 0.071 µM) | – |
| CCOC(=O)C1=C(C)NC(COC(=O)NC2CCCCC2)=C(C(=O)OCCOC)C1c1cccc([N+](=O)[O-])c1 (stereo not drawn) [(14), 2-N--Cyclohexylaminocarbonyloxymethyl-6-methyl-5-ethoxycarbonyl-3-(β-methoxyethoxy)carbonyl-1,4-dihydropyridine] | – | 88 | 0.35 (≈ 0.642 µM) | – |
| COC(=O)C1=C(COC(N)=O)NC(C)=C(C(=O)OCCN(C)Cc2ccccc2)C1c1cccc([N+](=O)[O-])c1 (stereo not drawn) [(15), 2-Aminocarbonyloxymethyl-6-methyl-4-(3-nitrophenyl)-3-methoxycarbonyl-5-(β-N--methylbenzylaminoethoxy)carbonyl-1,4-dihydropyridine] | – | > 200 | 0.4 (≈ 0.743 µM) | – |
| CNC(=O)OCC1=C(C(=O)OC)C(c2cccc([N+](=O)[O-])c2)C(C(=O)OCCN(C)Cc2ccccc2)=C(C)N1 (stereo not drawn) [(16), 2-N--Methylaminocarbonyloxymethyl-6-methyl-4-(3-nitrophenyl)-3-methoxycarbonyl-5-(β-N--methylbenzylaminoethoxy)carbonyl-1,4-dihydropyridine] | – | 146 | 0.25 (≈ 0.452 µM) | – |
| COC(=O)C1=C(COC(N)=O)NC(C)=C(C(=O)OCCN2CCN(C)CC2)C1c1cccc([N+](=O)[O-])c1 (stereo not drawn) [(17), 2-Aminocarbonyloxymethyl-6-methyl-4-(3-nitrophenyl)-3-methoxycarbonyl-5-[β-(4-methyl-1-piperazinyl)ethoxycarbonyl]-1,4-dihydropyridine] | – | 68 | 2 (≈ 3.86 µM) | – |
| COC(=O)C1=C(COC(N)=O)NC(C)=C(C(=O)OCCN2CCOCC2)C1c1cccc([N+](=O)[O-])c1 (stereo not drawn) [(18), 2-Aminocarbonyloxymethyl-6-methyl-4-(3-nitrophenyl)-3-methoxycarbonyl-5-(β-morpholinoethoxy)carbonyl-1,4-dihydropyridine] | – | > 200 | 1.5 (≈ 2.97 µM) | – |
| CCCOCCOC(=O)C1=C(COC(N)=O)NC(C)=C(C(=O)OCCN(C)Cc2ccccc2)C1c1cccc([N+](=O)[O-])c1 (stereo not drawn) [(19), 2-Aminocarbonyloxymethyl-6-methyl-4-(3-nitrophenyl)-3-(β-propoxyethoxy)carbonyl-5-(β-N--methylbenzylaminoethoxy)carbonyl-1,4-dihydropyridine] | – | 168 | 0.18 (≈ 0.295 µM) | – |
| COCCOC(=O)C1=C(C)NC(COC(N)=O)=C(C(=O)OCCOC)C1c1ccccc1Cl (stereo not drawn) [(20), 2-Aminocarbonyloxymethyl-6-methyl-4-(2-chlorophenyl)-3,5-bis[(β-methoxyethoxy)carbonyl]-1,4-dihydropyridine] | – | 184 | 0.36 (≈ 0.745 µM) | – |
| CCOC(=O)C1=C(COC(=O)Nc2ccc(Cl)cc2)NC(C)=C(C(=O)OC(C)C)C1c1cccc([N+](=O)[O-])c1 (stereo not drawn) [(21), 2-(4-chlorophenyl)aminocarbonyloxymethyl-6-methyl-4-(3-nitrophenyl)-3-ethoxycarbonyl-5-isopropoxycarbonyl-1,4-dihydropyridine] | – | 83 | 0.28 (≈ 0.502 µM) | – |
| CCOC(=O)C1=C(COC(=O)Nc2ccccc2)NC(C)=C(C(=O)OC(C)C)C1c1cccc([N+](=O)[O-])c1 (stereo not drawn) [(22), 2-N--Phenylaminocarbonyloxymethyl-6-methyl-4-(3-nitrophenyl)-3-ethoxycarbonyl-5-isopropoxycarbonyl-1,4-dihydropyridine] | – | 80 | 0.33 (≈ 0.63 µM) | – |
| COC(=O)C1=C(C)NC(C)=C(C(=O)OC)C1c1ccccc1[N+](=O)[O-] [nifedipine, 2,6-Dimethyl-4-(2-nitrophenyl)-3,5-dimethoxycarbonyl-1,4-dihydropyridine] | 0.29 (≈ 0.837 µM) | – | 0.22 (≈ 0.635 µM) | BP (systemic blood pressure) % decrease ([3]; 1 μg/kg i.v.): 2%; CF (coronary blood flow) % increase ([3]; 1 μg/kg i.v.): 10%; FAF (femoral artery blood flow) % increase ([3]; 1 μg/kg i.v.): -3%; HR (heart rate) % increase ([3]; 1 μg/kg i.v.): 0.6%; BP (systemic blood pressure) % decrease ([3]; 3 μg/kg i.v.): 10%; CF (coronary blood flow) % increase ([3]; 3 μg/kg i.v.): 48%; FAF (femoral artery blood flow) % increase ([3]; 3 μg/kg i.v.): -4%; HR (heart rate) % increase ([3]; 3 μg/kg i.v.): 2%; BP (systemic blood pressure) % decrease ([3]; 10 μg/kg i.v.): 18%; CF (coronary blood flow) % increase ([3]; 10 μg/kg i.v.): 86%; FAF (femoral artery blood flow) % increase ([3]; 10 μg/kg i.v.): 10%; HR (heart rate) % increase ([3]; 10 μg/kg i.v.): 4% |
